Assay results as given in ChEMBL document CHEMBL5465560, “Selectivity Literature for EUbOPEN Chemogenomic Library” (2024).

What was measured:
[1] = target: Dual specificity mitogen-activated protein kinase kinase 2 (Homo sapiens) (UniProt P36507); assay: Selectivity interaction (KinomeScan (DiscoverX)) EUB0000229b MAP2K2; details: at 10 µM
[2] = target: T1, Serine/threonine-protein kinase ULK1 (Homo sapiens) (UniProt O75385); assay: Selectivity interaction (KinomeScan (DiscoverX)) EUB0000045b ULK1
T1 sequence (whole entry): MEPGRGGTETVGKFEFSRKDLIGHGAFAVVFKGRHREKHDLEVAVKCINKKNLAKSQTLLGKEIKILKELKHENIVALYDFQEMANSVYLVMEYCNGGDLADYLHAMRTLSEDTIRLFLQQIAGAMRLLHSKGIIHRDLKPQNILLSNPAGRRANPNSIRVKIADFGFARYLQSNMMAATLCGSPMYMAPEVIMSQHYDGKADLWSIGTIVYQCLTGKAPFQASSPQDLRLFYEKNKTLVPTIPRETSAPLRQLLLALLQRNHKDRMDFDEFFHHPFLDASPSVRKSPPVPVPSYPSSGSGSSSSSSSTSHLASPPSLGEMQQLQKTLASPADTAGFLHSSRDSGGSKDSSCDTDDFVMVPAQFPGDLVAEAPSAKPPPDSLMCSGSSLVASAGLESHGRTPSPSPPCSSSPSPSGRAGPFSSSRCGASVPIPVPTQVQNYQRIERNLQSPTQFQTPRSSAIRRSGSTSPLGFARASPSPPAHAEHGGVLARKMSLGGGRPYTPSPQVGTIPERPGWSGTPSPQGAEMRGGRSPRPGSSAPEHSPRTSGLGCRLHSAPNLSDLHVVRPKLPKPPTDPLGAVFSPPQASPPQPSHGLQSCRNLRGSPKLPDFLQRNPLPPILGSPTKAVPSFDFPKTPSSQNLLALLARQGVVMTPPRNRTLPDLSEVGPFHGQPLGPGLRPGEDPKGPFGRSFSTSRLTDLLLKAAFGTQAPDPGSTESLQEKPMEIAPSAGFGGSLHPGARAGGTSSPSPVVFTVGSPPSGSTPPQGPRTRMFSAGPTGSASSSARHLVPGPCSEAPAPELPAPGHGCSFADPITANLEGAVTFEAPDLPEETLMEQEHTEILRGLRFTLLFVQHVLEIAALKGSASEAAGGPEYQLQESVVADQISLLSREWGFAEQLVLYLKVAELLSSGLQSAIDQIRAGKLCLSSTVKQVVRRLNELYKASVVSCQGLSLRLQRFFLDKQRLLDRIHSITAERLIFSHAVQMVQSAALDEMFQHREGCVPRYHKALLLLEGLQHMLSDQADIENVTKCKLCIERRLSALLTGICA

[3] = target: Homeodomain-interacting protein kinase 2 (Homo sapiens, UniProt Q9H2X6); assay: Selectivity interaction (KinomeScan (DiscoverX)) EUB0000045b HIPK2
Homeodomain-interacting protein kinase 2, sequence (Q9H2X6 whole entry, looked up): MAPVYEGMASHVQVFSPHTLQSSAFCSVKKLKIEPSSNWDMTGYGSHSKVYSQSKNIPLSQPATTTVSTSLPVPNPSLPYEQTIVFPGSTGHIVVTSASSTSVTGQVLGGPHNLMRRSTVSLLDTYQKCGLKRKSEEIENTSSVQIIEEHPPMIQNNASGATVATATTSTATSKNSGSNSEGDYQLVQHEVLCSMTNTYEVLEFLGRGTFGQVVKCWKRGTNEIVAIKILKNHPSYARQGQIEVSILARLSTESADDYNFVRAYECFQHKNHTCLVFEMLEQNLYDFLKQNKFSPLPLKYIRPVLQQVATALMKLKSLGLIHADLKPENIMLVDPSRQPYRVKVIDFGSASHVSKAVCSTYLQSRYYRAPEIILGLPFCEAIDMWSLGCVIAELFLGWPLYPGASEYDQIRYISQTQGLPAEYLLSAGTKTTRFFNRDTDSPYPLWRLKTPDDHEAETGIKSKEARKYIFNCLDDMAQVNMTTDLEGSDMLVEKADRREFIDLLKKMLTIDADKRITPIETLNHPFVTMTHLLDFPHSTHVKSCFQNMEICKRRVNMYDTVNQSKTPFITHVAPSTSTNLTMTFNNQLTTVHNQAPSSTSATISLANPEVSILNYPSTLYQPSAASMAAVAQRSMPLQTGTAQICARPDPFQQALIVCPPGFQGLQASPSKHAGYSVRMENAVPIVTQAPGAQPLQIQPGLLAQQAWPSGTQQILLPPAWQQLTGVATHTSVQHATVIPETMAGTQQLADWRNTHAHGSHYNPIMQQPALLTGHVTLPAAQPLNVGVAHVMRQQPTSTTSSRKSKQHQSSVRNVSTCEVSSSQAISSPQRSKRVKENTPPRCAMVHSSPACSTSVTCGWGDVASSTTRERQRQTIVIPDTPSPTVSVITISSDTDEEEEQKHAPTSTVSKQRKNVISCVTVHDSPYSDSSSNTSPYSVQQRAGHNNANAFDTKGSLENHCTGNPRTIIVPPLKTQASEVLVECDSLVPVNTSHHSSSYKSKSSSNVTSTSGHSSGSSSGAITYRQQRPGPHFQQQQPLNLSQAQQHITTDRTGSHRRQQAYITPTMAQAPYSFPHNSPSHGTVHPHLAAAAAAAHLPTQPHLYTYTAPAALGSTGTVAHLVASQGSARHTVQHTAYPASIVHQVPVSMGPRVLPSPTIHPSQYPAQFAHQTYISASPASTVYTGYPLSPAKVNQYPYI

[4] = target: T2, Cyclin-dependent kinase-like 5 (Homo sapiens) (UniProt O76039); assay: Selectivity interaction (KinomeScan (DiscoverX)) EUB0001079a CDKL5; details: at 1 µM
T2 sequence (whole entry): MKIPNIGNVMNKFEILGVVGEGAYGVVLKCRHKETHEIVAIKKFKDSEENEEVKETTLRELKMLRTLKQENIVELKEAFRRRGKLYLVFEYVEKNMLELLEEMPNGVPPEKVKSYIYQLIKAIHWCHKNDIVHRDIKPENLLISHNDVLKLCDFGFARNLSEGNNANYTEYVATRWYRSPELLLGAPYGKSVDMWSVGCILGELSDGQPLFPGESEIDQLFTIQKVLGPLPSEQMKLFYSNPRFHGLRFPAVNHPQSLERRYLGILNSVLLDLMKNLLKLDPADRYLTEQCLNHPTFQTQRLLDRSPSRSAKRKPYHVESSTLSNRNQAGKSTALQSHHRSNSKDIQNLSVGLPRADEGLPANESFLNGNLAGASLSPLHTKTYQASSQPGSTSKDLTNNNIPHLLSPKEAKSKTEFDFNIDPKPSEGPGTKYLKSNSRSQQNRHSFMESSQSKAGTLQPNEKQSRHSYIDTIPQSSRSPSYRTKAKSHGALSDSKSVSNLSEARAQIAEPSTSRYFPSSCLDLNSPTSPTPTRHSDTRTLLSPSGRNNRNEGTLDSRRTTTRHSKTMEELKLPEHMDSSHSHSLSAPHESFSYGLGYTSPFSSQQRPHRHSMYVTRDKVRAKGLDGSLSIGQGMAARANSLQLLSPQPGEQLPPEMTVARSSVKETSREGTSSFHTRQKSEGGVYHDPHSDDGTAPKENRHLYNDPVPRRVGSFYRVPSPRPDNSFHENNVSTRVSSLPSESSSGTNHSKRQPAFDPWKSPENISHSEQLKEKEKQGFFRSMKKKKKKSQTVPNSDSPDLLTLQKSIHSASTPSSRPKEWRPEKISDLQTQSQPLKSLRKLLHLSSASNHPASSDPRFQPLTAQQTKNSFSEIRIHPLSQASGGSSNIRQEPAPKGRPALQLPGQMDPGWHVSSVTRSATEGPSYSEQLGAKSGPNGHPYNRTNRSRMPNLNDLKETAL

[5] = target: Calcium/calmodulin-dependent protein kinase kinase 2 (Homo sapiens) (UniProt Q96RR4); assay: Selectivity interaction (KinomeScan (DiscoverX)) EUB0000666a CAMKK2; details: at 10 µM
[6] = target: Bromodomain-containing protein 3 (Homo sapiens) (UniProt Q15059); assay: Selectivity interaction (Bromodomain panel (DSF asssay)) EUB0000270b BRD3
Bromodomain-containing protein 3 (Homo sapiens), sequence (Q15059 2-726 limits assumed): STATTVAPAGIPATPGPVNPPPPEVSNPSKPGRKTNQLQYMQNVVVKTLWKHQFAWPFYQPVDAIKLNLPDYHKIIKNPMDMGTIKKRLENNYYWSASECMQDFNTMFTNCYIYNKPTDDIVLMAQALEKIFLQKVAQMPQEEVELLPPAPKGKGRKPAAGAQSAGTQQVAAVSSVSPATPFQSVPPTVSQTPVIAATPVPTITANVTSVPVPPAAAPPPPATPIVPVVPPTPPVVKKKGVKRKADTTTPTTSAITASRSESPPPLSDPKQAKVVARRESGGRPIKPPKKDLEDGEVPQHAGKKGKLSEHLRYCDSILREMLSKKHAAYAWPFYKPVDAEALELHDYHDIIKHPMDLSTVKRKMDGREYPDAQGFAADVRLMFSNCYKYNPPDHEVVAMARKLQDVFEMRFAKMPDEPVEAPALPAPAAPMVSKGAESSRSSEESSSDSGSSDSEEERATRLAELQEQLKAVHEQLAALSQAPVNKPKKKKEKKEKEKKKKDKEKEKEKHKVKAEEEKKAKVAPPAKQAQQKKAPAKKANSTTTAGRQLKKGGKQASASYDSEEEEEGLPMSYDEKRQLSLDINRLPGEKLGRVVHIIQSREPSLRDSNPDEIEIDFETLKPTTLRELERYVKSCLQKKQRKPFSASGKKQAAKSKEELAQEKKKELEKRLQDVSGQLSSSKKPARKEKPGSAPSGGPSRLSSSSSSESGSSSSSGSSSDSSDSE

[7] = target: DNA (cytosine-5)-methyltransferase 3A (Homo sapiens) (UniProt Q9Y6K1); assay: Selectivity interaction (Methyltransferase screen (radiometric assays, panel of 8 PRMTs, 21 protein lysine methyltransferases, 3 DNA methyltransferases, and one RNA methyltransferase)) EUB0000271b DNMT3A
DNA (cytosine-5)-methyltransferase 3A (Homo sapiens), sequence (Q9Y6K1 whole entry, looked up): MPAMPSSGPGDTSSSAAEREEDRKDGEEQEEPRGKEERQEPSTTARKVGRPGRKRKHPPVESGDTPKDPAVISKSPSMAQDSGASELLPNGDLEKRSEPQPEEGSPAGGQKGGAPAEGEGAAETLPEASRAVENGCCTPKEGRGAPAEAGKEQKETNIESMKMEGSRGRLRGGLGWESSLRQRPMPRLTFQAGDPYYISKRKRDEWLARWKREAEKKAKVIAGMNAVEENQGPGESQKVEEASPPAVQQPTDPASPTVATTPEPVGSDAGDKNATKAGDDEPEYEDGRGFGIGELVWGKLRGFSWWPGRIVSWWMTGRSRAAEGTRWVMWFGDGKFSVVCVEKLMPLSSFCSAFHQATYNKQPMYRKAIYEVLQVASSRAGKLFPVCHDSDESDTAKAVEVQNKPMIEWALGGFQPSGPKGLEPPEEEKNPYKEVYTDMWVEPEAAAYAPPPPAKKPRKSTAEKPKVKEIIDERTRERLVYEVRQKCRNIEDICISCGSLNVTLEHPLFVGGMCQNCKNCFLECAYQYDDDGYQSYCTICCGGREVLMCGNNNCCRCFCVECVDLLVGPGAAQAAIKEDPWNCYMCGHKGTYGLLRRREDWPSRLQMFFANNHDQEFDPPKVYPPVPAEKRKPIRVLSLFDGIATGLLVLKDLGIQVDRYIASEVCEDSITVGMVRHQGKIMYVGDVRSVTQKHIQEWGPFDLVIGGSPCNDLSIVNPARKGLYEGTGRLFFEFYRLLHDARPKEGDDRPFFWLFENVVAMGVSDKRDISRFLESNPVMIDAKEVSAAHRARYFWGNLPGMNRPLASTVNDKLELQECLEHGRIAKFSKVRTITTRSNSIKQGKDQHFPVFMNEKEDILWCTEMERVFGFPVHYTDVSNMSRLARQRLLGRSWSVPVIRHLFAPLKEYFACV

[8] = target: Substance-P receptor (Homo sapiens) (UniProt P25103); assay: Selectivity interaction (Eurofins CEREP Diversity Profile (receptors and ion channels)) EUB0000279b TACR1; details: at 10 µM
Substance-P receptor (Homo sapiens), sequence (P25103 whole entry): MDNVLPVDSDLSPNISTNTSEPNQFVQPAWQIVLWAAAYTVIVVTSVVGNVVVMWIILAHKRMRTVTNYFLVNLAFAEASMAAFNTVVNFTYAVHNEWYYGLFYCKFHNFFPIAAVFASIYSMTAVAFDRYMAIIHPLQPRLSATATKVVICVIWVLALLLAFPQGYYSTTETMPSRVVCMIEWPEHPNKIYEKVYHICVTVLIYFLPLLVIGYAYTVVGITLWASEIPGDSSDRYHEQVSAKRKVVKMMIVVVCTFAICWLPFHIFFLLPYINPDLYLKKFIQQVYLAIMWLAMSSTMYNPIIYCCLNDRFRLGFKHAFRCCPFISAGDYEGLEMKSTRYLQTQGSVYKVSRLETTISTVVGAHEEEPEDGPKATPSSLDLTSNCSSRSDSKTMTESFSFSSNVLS

Ephrin type-A receptor 4 = Ephrin type-A receptor 4 (Homo sapiens, UniProt P54764); assay: Selectivity interaction (SelectScreen profiling (Invitrogen)) EUB0000607a EPHA4; details: at 2 µM
Ephrin type-A receptor 4, sequence (P54764 whole entry): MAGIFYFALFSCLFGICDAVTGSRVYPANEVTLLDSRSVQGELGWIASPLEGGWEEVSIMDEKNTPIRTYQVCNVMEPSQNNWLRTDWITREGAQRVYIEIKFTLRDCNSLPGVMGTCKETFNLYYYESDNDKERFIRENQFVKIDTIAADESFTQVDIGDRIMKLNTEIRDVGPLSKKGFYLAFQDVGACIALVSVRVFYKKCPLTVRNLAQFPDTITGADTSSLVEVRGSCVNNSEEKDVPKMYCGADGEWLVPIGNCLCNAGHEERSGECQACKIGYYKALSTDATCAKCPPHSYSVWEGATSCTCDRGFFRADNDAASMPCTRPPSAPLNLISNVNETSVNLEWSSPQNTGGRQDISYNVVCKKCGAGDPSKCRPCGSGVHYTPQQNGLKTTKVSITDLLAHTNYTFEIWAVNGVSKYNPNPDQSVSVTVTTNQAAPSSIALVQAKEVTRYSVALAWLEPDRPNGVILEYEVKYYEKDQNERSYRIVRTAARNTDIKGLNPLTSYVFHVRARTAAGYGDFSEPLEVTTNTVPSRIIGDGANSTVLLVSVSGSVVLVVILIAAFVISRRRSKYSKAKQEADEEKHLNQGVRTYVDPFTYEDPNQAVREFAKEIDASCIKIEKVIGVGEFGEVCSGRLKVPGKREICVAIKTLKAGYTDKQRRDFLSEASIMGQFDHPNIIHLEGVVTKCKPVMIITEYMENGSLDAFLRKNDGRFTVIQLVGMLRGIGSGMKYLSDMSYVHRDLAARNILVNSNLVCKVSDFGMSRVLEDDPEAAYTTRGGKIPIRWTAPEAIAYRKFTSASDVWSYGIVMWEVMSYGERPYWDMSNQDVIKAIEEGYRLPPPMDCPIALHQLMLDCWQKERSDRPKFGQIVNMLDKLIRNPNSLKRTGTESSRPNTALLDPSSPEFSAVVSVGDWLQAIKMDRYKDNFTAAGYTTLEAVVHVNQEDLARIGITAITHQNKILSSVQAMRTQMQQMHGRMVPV

[9] = target: Activin receptor type-2A (Homo sapiens) (UniProt P27037); details: at 10 µM
[10] = target: Tyrosine-protein kinase CSK (Homo sapiens) (UniProt P41240); assay: Selectivity interaction (Ambit KINOMEscan and KiNATiv profiling in Jurkat cells) EUB0000090b CSK; format: cell-based; details: at 1 µM
Tyrosine-protein kinase CSK (Homo sapiens), sequence (P41240 2-450 limits assumed): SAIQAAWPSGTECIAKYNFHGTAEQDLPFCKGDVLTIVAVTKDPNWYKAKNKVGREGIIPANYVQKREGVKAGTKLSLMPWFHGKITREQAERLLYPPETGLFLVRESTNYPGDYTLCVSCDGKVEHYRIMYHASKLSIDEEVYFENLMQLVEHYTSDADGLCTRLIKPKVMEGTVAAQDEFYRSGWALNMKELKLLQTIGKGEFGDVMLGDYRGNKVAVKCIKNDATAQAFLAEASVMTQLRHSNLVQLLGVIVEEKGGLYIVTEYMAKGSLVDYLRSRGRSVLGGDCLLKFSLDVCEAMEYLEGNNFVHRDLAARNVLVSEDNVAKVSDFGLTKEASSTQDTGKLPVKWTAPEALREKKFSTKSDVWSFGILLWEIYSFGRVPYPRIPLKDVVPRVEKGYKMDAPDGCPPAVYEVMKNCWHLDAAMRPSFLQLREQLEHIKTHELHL

Dual specificity mitogen-activated protein kinase kinase 2 (Homo sapiens), sequence (P36507 whole entry): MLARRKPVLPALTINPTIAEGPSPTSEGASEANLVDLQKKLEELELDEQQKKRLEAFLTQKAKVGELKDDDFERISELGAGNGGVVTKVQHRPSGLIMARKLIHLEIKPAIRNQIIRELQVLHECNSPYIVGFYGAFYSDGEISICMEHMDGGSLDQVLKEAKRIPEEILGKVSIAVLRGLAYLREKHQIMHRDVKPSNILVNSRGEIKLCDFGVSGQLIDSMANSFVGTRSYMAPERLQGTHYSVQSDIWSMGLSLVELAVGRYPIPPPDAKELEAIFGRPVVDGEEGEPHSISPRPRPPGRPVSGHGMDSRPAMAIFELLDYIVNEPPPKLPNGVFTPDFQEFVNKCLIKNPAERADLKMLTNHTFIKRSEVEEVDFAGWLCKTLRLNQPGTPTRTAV

COc1cc(N(C)c2ccnc3ccc(C(F)(F)F)cc23)cc(OC)c1OC
% binding [1]: 68%

C=CC(=O)Nc1cc(-n2c(=O)ccc3cnc4ccc(-c5ccc(NS(C)(=O)=O)cc5)cc4c32)ccc1C
% of control ([2]; at 1 µM): 84% | % of control ([2]; at 10 µM): 100% | % of control ([3]; at 1 µM): 100% | % of control ([3]; at 10 µM): 100%

Nc1cnc(N2CCc3cc(S(=O)(=O)Nc4c(F)cc(Cl)cc4F)cc(N4CCCC4=O)c32)nc1 [TP-020n]
% of control [4]: 88%

O=C(NOC[C@H](O)CO)c1ccc(F)c(F)c1Nc1ccc(I)cc1F
% of control [5]: 100%

Cc1cc(CN)cc(C)c1-c1ncn(C)c1-c1cncn1C
dTM [6]: -1.78 K

Cc1cc(C)cc([C@@H]2c3cc(C)ccc3NC(=O)CN2C(=O)c2ccc(Br)s2)c1
% of activity ([7]; at 1 µM): 99% | % of activity ([7]; at 10 µM): 99%

CC(=O)c1cc(-c2ccccc2OCC2CC2)c2ncccn12
% of control [8]: 72%

CNC(=O)Nc1ccc(-c2nc(N3CC4CCC(C3)O4)c3cnn(C4CCC5(CC4)OCCO5)c3n2)cc1
% of inhibition (Ephrin type-A receptor 4): -1%

CCN(CC)CCCCNc1ncc2cc(-c3cc(OC)cc(OC)c3)c(NC(=O)NC(C)(C)C)nc2n1
% of control [9]: 100%

CN(C)C/C=C/C(=O)Nc1ccc(C(=O)N2CCCC(Nc3ncc(Cl)c(-c4c[nH]c5ccccc45)n3)C2)cc1 (centres undefined)
% of control [10]: 95%
